pIC50: −log10 of the molar value. Where two headings read alike, the source gives them in different places.
How the values were obtained:
cell growth = test: Requirement of CREB3L1 for inhibition of cell growth; type: cell-based
Text: We then determined the relationship between doxorubicin-induced cleavage of CREB3L1 and DNA breaks caused by inhibition of topoisomerase. […] However, this effect was unaffected by knockdown of CREB3L1 expression.

CREB3L1 [1] = test: CREB3L1 cleavage, immunoblot of membrane and nuclear fractions of Huh7 cells; type: cell-based, human; details: for amount of the nuclear form of CREB3L1 (cleavage of CREB3L1): Huh7 cells, compound alone
Text: We fractionated human hepatoma Huh7 cells (6) into membrane and nuclear fractions, and used an antibody reacting against the NH2-terminal domain of CREB3L1 (3) to examine the cleavage of CREB3L1 through immunoblot analysis.

Huh7 cells [2] = test: Proliferation of Huh7 cells; type: cell-based, human
Method: (§1) Inasmuch as CREB3L1 was required for doxorubicin to induce expression of p21, a well-characterized inhibitor of the cell cycle (11), we determined whether CREB3L1 was also required for the drug to inhibit cell proliferation. […] These concentrations of doxorubicin were not enough to trigger apoptosis of Huh7 cells, which became apparent only when the cells were treated with 5 μM of the compound.

human kidney tumor = test: Xenograft of human kidney tumors in mice; type: in vivo
collagen 1a1 and p21 = test: Expression of CREB3L1 target genes in Huh7 cells; type: cell-based, human
Method: as §1

ceramide synthesis = test: Ceramide synthesis, tritium-labeled palmitate incorporation in Huh7 cells; type: cell-based, human
Text: RIP of membrane-bound transcription factors is known to be a signal transduction pathway that transfers signals from the ER to nucleus (5). […] Daunorubicin, a chemotherapeutic drug derived from doxorubicin, was reported to induce de novo synthesis of ceramide (15).

MCF7 = MCF7 xenograft in athymic nude mice; type: in vivo; details: MCF7 overexpressing CREB3L1 vs without overexpression
Method: In particular, the relationship between CREB3L1 expression and doxorubicin sensitivity is confirmed in a study of 45 lines of breast cancer cells from ATCC Breast Cancer Cell Panel. […] The relationship between CERB3L1 expression and doxorubicin sensitivity is also confirmed in vivo by injection of MCF7 with or without overexpression of CREB3L1 into athymic nude mice. These mice are then treated with different doses of doxorubicin, confirming that the dose of doxorubicin required to shrink tumors produced from MCF7 cells overexpressing CREB3L1 are lower than those required to shrink tumors generated from those without the overexpression.

histone γH2AX = test: DNA breaks, histone γH2AX marker; type: cell-based
Huh7 cells [3] = test: Apoptosis of Huh7 cells; type: cell-based, human
Method: as §1

CREB3L1 [4] = test: CREB3L1 cleavage in wild type and S1P- or S2P-deficient CHO cells; type: cell-based, Chinese Hamster
SV589 cells = test: Growth inhibition of SV589 cells; type: cell-based, human; details: two siRNA duplexes
Method: (§2) If proteolytic activation of CREB3L1 is required for doxorubicin to inhibit cell proliferation, then the amount of CREB3L1 expressed in cancer cells may determine their sensitivity to doxorubicin. To test this hypothesis, we analyzed SV589 cells, an immortalized line of human fibroblasts (12), and MCF-7 cells, a line of human breast cancer cells (13). […] In this experiment, cells were treated with doxorubicin for 2 days. To determine the effect of CREB3L1 expression on proliferation of the cells treated with doxorubicin for a longer period of time, we incubated MCF-7 and MCF7/pCREB3L1(H) cells with 15 nM doxorubicin for 6 days.

[5] = patients treated with the drug; cited from earlier work
MCF-7 cells = test: Proliferation of MCF-7 cells with or without CREB3L1 overexpression; type: cell-based, human; details: for pIC50: Homo sapiens, MCF7, 48 h, treated 2 days, read-out: IC50 for doxorubicin; for proliferation (cell counting, cellular DNA content): 15 nM for 6 days
Method: as §2

[6] = Huh7 cells with CREB3L1 knockdown

## CC(=O)O[C@H]1C(=O)[C@@]2(C)[C@H]([C@H](OC(=O)c3ccccc3)[C@]3(O)C[C@H](OC(=O)[C@H](O)[C@@H](NC(=O)c4ccccc4)c4ccccc4)C(C)=C1C3(C)C)[C@]1(OC(C)=O)CO[C@@H]1C[C@@H]2O [paclitaxel]
Cell growth
  requirement of CREB3L1 to inhibit cell growth: not required

## CCCCCCC(=O)CCCCCC/C=C/C[C@@H](O)[C@H](O)[C@@](N)(CO)C(=O)O [Myriocin]
CREB3L1 [1]; co-treatment with doxorubicin
  inhibition of doxorubicin-induced cleavage of CREB3L1: inhibited doxorubicin-induced cleavage of CREB3L1 in a dose-dependent manner
Huh7 cells [2]; co-treatment with doxorubicin
  effect of co-treatment on cell sensitivity to doxorubicin: rendered the cells more resistant to doxorubicin

## bleomycin
Cell growth
  requirement of CREB3L1 to inhibit cell growth: not required

## COc1cccc2c1C(=O)c1c(O)c3c(c(O)c1C2=O)C[C@@](O)(C(=O)CO)C[C@@H]3O[C@H]1C[C@H](N)[C@H](O)[C@H](C)O1 [doxorubicin, Doxorubicin]
Human kidney tumor; tumors expressing CREB3L1
  effect compared with rapamycin: better than rapamycin
Human kidney tumor; tumors expressing CREB3L1, dose about 7 times lower than clinical
  tumor response: profoundly inhibited
Human kidney tumor; tumors without CREB3L1 expression, dose about 7 times lower than clinical
  tumor response: did not respond
Human kidney tumor; tumors without vs with CREB3L1 by 10H1 staining, day 3 to 21
  doxorubicin sensitivity of kidney tumors: much less doxorubicin sensitivity
Collagen 1a1 and p21; Huh7-shCREB3L1 cells
  induction of collagen 1a1 and p21: markedly blunted
Collagen 1a1 and p21; Huh7-shControl cells
  expression of collagen 1a1 and p21: induced the expression of collagen 1a1 and p21
CREB3L1 [1]
  amount of the nuclear form of CREB3L1 (cleavage of CREB3L1): markedly raised the amount of the nuclear form of CREB3L1
Ceramide synthesis
  tritium-labeled palmitate incorporated into ceramide: increased the amount of tritium-labeled palmitate incorporated into ceramide
MCF7
  dose required to shrink tumors: lower
Histone γH2AX
  DNA breaks (histone γH2AX): induced appearance of histone γH2AX
Huh7 cells [3]
  concentration at which apoptosis became apparent: 5 µM
CREB3L1 [4]; mutant CHO cells deficient in either S1P or S2P
  cleavage of CREB3L1 to the nuclear form: failed to produce the nuclear form of CREB3L1
CREB3L1 [4]; wild type CHO cells
  cleavage of CREB3L1 to the nuclear form: stimulated cleavage of CREB3L1
SV589 cells
  effect of CREB3L1 siRNA knockdown on sensitivity: more resistant
Huh7 cells [2]; Huh7-shCREB3L1 cells
  concentration that blocks proliferation: > 500 nM
[5]
  clinically relevant concentration in the serum of patients: < 1 µM
MCF-7 cells; MCF7/pCREB3L1(H), 300-fold CREB3L1 overexpression
  pIC50: ~9.00
MCF-7 cells; MCF7/pCREB3L1(L), 8-fold CREB3L1 overexpression
  pIC50: 8.00
MCF-7 cells; parental MCF-7 cells
  pIC50: 6.30
MCF-7 cells; MCF7/pCREB3L1(H) cells
  proliferation (cell counting, cellular DNA content): markedly blocked proliferation
MCF-7 cells; MCF-7 cells
  proliferation (cell counting, cellular DNA content): did not affect proliferation

## CCCCCCCCCCCCC/C=C/[C@@H](O)[C@H](CO)NC(=O)CCCCC [C6-ceramide]
CREB3L1 [1]
  amount of the nuclear form of CREB3L1 (cleavage of CREB3L1): stimulated CREB3L1 cleavage
Huh7 cells [2]; [6]
  inhibition of cell proliferation after CREB3L1 knockdown: completely abolished the ability of C6-ceramide to inhibit cell proliferation

## COc1cc([C@@H]2c3cc4c(cc3[C@@H](O[C@@H]3O[C@@H]5CO[C@@H](C)O[C@H]5[C@H](O)[C@H]3O)[C@H]3COC(=O)[C@H]23)OCO4)cc(OC)c1O [etoposide]
CREB3L1 [1]
  amount of the nuclear form of CREB3L1 (cleavage of CREB3L1): failed to induce cleavage of CREB3L1
Huh7 cells [2]; [6]
  effect of CREB3L1 knockdown on resistance: did not increase their resistance
MCF-7 cells; MCF7 cells overexpressing CREB3L1
  effect of CREB3L1 overexpression on sensitivity: did not increase their sensitivity

From US20160264655A1, “Treating cancers with drugs targeting CREB3L1” (Board of Regents, The University of Texas System, priority 2013, published 2016)
